Measurements reported in publication PMC11396514, “Synthesis and Biological Evaluation of Novel Piperidine-3-Carboxamide Derivatives as Anti-Osteoporosis Agents Targeting Cathepsin K” (Molecules, 2024).
“Also recorded” adds a separate entry of the source.

Assays:
[1] = system: Cat K levels in RAW264.7 cells; assay: Western blotting assay of Cat K expression; format: cell-based; details: H-9 at 0, 1 and 5 µM for five days, RANKL-treated RAW264.7 cells
Procedure: To further verify the anti-bone resorption mechanism of the target compounds, a western blotting assay was carried out to assess the effect of compound H-9 on the expression of Cat K. […] RAW264.7 cells were treated with compound H-9 at concentrations of 0, 1, and 5 µM for five days, followed by cell lysis. Proteins were extracted and analyzed for Cat K levels. […] These western blotting results, combined with enzyme inhibitory activities and molecular docking analyses, confirm that the anti-bone resorption activity of compound H-9 is mediated through the inhibition of Cat K activity.
RAW264.7 cells were seeded into 12-well plates at a density of 1 × 10^5 cells per well, and 50 ng mL^−1 of RANKL was added to induce cell differentiation. The cells were cultured at 37 °C under 5% CO2 and treated with compound H-9 (0, 1, and 5 µM) for 5 days. The cells were then harvested, lysed, and centrifuged at 12,000× g for 10 min. The supernatants were collected and mixed with loading buffer, then heated to 100 °C. Total protein concentrations were determined using a Bio-Rad protein assay ([…], Hercules, CA, USA). The samples were subjected to SDS-PAGE and transferred to a PVDF membrane. The membrane was blocked with 5% non-fat milk, and then, incubated overnight at 4 °C with primary antibody against Cat K and GAPDH. […]

[2] = Acute toxicity testing, oral; format: in vivo, mice; details: mouse, in vivo, 300 mg/kg/day for 7 days, mice
Procedure: (§1) Initially, acute toxicity testing was carried out to establish appropriate dosages. Compound H-9 was administered orally at a dose of 300 mg/kg/day for 7 days.

mice = assay: Acute toxicity testing, oral; format: in vivo; details: 300 mg/kg/day for 7 days
Procedure: as §1

Recombinant human Cat K = molecular target: T1, Recombinant human Cat K (Homo sapiens, UniProt P43235); assay: In vitro enzymatic assay of Cat K inhibition (Z-Phe-Arg-AMC fluorescence); format: biochemical; details: pH 6.0, substrate Z-Phe-Arg-AMC, read-out: Cat K IC50 (µM) ± SD
T1 sequence (P43235 115-329): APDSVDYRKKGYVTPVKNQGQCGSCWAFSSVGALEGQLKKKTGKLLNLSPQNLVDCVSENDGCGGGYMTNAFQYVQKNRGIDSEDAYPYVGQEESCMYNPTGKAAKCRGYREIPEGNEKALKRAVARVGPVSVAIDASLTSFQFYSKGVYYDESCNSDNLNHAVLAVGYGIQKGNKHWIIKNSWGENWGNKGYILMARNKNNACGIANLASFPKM
Procedure: Compounds were tested at eight concentrations (100–0.001 µM). Recombinant human Cat K (5.5 ng/mL) in reaction buffer (50 µL) containing sodium acetate (50 mM), EDTA (2.5 mM), and DTT (1 mM) was added to a 96-well plate containing the test compounds at pH 6.0. The plate was incubated at 37 °C for 15 min, and the fluorescence (F1) was measured at 355 nm excitation and 460 nm emission using a microplate reader (Wallac 1420 Victor2, Norwalk, CA, USA). Subsequently, Z-Phe-Arg-AMC (20 µL, 10 µM) was added, and the plate was incubated at 37 °C for 1 h. Fluorescence (F2) was measured again at 355 nm excitation and 460 nm emission. The inhibition rate was calculated using the formula: inhibition (%) = [control (F2 − F1) − sample (F2–F1)]/[control (F2 − F1) − blank (F2 − F1)] × 100%. IC50 values were calculated using the SPSS 17.0 software.

[3] = system: OVX-induced-osteoporosis mice; assay: OVX-induced osteoporosis mouse model, BMD of the thighbone; format: in vivo; details: 16 weeks; for BMD compared to the untreated model group: H-9 90, 30 and 10 mg/kg, raloxifene 5 mg/kg, intragastric
Procedure: To evaluate the anti-osteoporosis therapeutic potential of compound H-9, an ovariectomized (OVX)-induced osteoporosis mouse model was established and employed. The study included six experimental groups: a blank control group, an untreated model group, three H-9 treatment groups (doses of 90 mg/kg, 30 mg/kg, and 10 mg/kg), and a positive control group treated with raloxifene (5 mg/kg), with 10 mice in each group.
The mice were randomly divided into 2 groups: a blank control group (n = 10) and a model group (n = 50). After a 7-day acclimation period, the model group mice received a bilateral ovariectomy. Subsequently, the model group was further divided into 5 subgroups (n = 10): an untreated model group, three test groups, and a raloxifene group. Ten days after surgery, the three test groups were administered compound H-9 via intragastric administration at doses of 90 mg/kg, 30 mg/kg, and 10 mg/kg, respectively. Raloxifene was given to the positive control group at a dose of 5 mg/kg. All drugs were administered for 16 weeks, with a 1-day break following every 6 consecutive days of administration. The blank control and untreated model groups received an equivalent volume of saline. At the end of the administration period, the mice were anesthetized with sodium pentobarbital, and the BMD of the thighbone was measured using an OSTEOCORE 3 Bone Density Meter (Thule, Marseille, France).

[4] = system: RANKL-induced RAW264.7 cells; assay: In vitro anti-bone resorption assay: area of bone resorption pits on bone slices (toluidine blue); format: cell-based; details: compound 1 µM, 5 days, compared with MIV-711 / model group
Text: (§2) Type I collagen, the predominant structural protein in bone, constitutes approximately 90% of the bone matrix protein [22]. During bone renewal, type I collagen is degraded, releasing short peptide fragments such as the C-terminal peptide of type I collagen (CTX-I) into the bloodstream. The concentration of CTX-I in the patient’s blood serves as a crucial biomarker for evaluating the degree of osteoporosis. In vitro, bone resorption can be assessed by measuring the concentration of CTX-I using a model in which osteoclasts are cultured on bone slices. In this experiment, the in vitro anti-bone resorption activities of the test compounds were evaluated in RANKL-induced RAW264.7 cells. This evaluation was based on the concentration of CTX-I released into the cell culture medium due to bone degradation, as well as the area of bone resorption pits formed on bone slices.
(§3) RAW264.7 cells, obtained from the cell bank of the Chinese Academy of Medical Sciences, were seeded into 96-well plates at a density of 1 × 10^5 cells per well with bovine femur slices. To induce cell differentiation, 50 ng mL^−1 of RANKL was added to the RAW264.7 cells. The cells were cultured for 5 days at 37 °C under 5% CO2 with the test compounds at a concentration of 1 µM. The culture supernatant was collected to measure the CTX-I concentration using ELISA. The bone slices were fixed with 2.5% glutaraldehyde for 7 min, then washed 3 times with 0.25 mol/L ammonium hydroxide, dehydrated using a series of ethanol solutions (40%, 75%, 80%, 95%, and anhydrous ethanol), and dried naturally. After staining with 1% toluidine blue solution at room temperature for 3–4 min, the bone slices were rinsed with distilled water and analyzed using an optical microscope. Bone resorption areas were calculated using image analysis software (iBright CL1500, Redmond, WA, USA).

[5] = system: RANKL-induced RAW264.7 cells; assay: In vitro anti-bone resorption assay: CTX-I released into culture medium (ELISA), cells on bovine femur slices; format: cell-based
Text: as §2, §3

SMILES	Effect on Cat K levels (western blot) [1]	LD50 at 7 days [2]	Mouse deaths (mice)	IC50 (Recombinant human Cat K)	BMD compared to the untreated model group [3]	Efficacy on BMD compared to the positive control ([3]; H-9 at 90 mg/kg vs raloxifene 5 mg/kg)	Anti-bone resorption activity by area of bone resorption pits (in words) [4]	CTX-I concentration in the cell culture medium ([5]; compound 1 µM, 5 days, ELISA)	CTX-I concentration compared to the model group (in words) ([5]; compound 1 µM, 5 days, vs untreated model group)	Anti-bone resorption effects in vitro compared to MIV-711 (summary statement) ([5]; in vitro, RAW264.7 cells)
COc1ccc(S(=O)(=O)N2CCC[C@@H](C(=O)NCc3ccc(Cl)cc3)C2)cc1 [Compound H-9, (R)-N-(4-chlorobenzyl)-1-((4-methoxyphenyl)sulfonyl)piperidine-3-carboxamide]	dose-dependent decrease in Cat K levels; also recorded: effectively downregulated cathepsin K expression; also recorded: decreased Cat K levels	> 300 mg/kg	No mouse deaths	0.08 ± 0.03 µM	increased the bone mineral density; also recorded: significant increases in BMD	comparable to that of the positive control	comparable to that of MIV-711	20.46 ± 3.67 nM	reduced CTX-I concentration	comparable to those of MIV-711; also recorded: comparable to that of MIV-711
O=C(c1ccc(OCCN2CCCCC2)cc1)c1c(-c2ccc(O)cc2)sc2cc(O)ccc12 [raloxifene, reference compound]					significant increases in BMD					
